Columns and labels:
[1] = system: predator mites Galendromus occidentalis and Neoseiulus fallacis; details: in vivo
Description: Final concentrations of each component of the tank mix are: one-half percent liquid soap, one percent crop oil and one percent beta acids.
This mixture was applied to hop plants using a Windmill 400 gallon airblast sprayer. The mixture was applied to a one-acre test plot at the rate of 20 gallons per acre and to another one-acre plot at the rate of 100 gallons per acre. A total of five applications were made during the growing season. The first was made June 9th and the final on August 1st. Counts of live spider mites were made periodically during the season to monitor the effect of the product on the number of live mites. Simultaneously, the beneficial predator mites Galendromus occidentalis and Neoseiulus fallacis were counted to determine the effect of the product on these predator mites since these predator mites are useful in helping to reduce the numbers of twospotted spider mites.

[2] = system: Erysiphe (=Uncinula) necator; assay: Grapevine powdery mildew control test (experimental vineyard); assay type: in vivo; details: standard control fungicide, concentration not given; percent of grape clusters that showed disease
Procedure: The grapevine powdery mildew organism is the fungus Erysiphe (=Uncinula) necator and the host plant is wine grape plant Vitis vinifera. Tests were conducted in an experimental vineyard near Pasco, Wash. Treatments were applied using an airblast sprayer at a volume of 100 gallons per acre. Disease inoculum was natural and had been the heaviest it has been in at least seven years. Plot size was five grape plants. Treatments were replicated four times and evaluations were made on September 4th. […] Percent severity is the portion of each grape cluster that was covered with symptoms.

Beta Acids
predator numbers [1]: quite high | predator numbers, highest reached [1]: ≤ 12 per leaf

OC(c1ccc(Cl)cc1)(c1cncnc1)c1ccccc1Cl (stereo not drawn) [Standard Control, Fenarimol]
Percent Incidence [2]: 71%
